Data taken from patent EP4417602A1, “SUBSTITUTED PYRAZOLE CARBOXAMIDES, SALTS THEREOF AND THEIR USE AS HERBICIDALLY ACTIVE SUBSTANCES” (Bayer AG, priority 2023, dated 2024).

What was measured:
[1] = system: BRSNW; assay: D. Pre-emergence effects on crop plants (Tables D); format: in vivo, Brassica napus; settings: crop plant
In short: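 Seeds sown in sandy loam and covered; WP or EC formulations sprayed onto the soil surface as aqueous suspension/emulsion with 0.5% additive, at 320 g/ha or below. Greenhouse-grown; visual damage scored after ca. 3 weeks against untreated controls (0% = as control, 100% = plants dead).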

[2] = system: GLXMA; assay: F. Post-emergence effects on crop plants (Tables F); format: in vivo, Glycine max; settings: crop plant
In short: (§1)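 Plants were grown in sandy loam in a greenhouse and sprayed post-emergence at the single-leaf stage, 2–3 weeks after sowing. Visual damage was scored after ca. 3 weeks against untreated controls (0% = as control, 100% = dead).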

[3] = system: SETVI; assay: A. Herbicidal pre-emergence action on harmful plants (Tables A); format: in vivo, Setaria viridis; settings: visual grading after ca. 3 weeks vs untreated controls, 100% = plants have died off, 0% = as control plants
In short: (§2)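 Values are visual percent damage relative to untreated controls, scored ca. 3 weeks after the compound was sprayed on the covering soil of sown pots (sandy loam) at rates up to 1280 g/ha, formulated as WP or EC with 0.5% additive.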

[4] = system: DIGSA; assay: C. Herbicidal pre-emergence action, weed and crop plants (Tables C); format: in vivo, Digitaria sanguinalis
In short: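 Seeds were sown in sandy loam and covered with soil. WP or EC formulations were sprayed onto the soil surface as aqueous suspension or emulsion with 0.5% additive, at rates of 320 g/ha or below. Plants were kept in a greenhouse, and damage was scored visually after about 3 weeks as % effect versus untreated controls (100% = dead, 0% = like control).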

[5] = system: POAAN; assay: A. Herbicidal pre-emergence action on harmful plants (Tables A); format: in vivo, Poa annua
In short: as §2

[6] = system: ZEAMX; assay: F. Post-emergence effects on crop plants (Tables F); format: in vivo, Zea mays; settings: crop plant
In short: as §1

[7] = system: STEME; assay: A. Herbicidal pre-emergence action on harmful plants (Tables A); format: in vivo, Stellaria media; settings: visual grading after ca. 3 weeks vs untreated controls, 100% = plants have died off, 0% = as control plants
In short: as §2

[8] = system: LOLRI; assay: C. Herbicidal pre-emergence action, weed and crop plants (Tables C); format: in vivo, Lolium rigidum; settings: application rate 320 g/ha; Table C7a
Text: (§3) Seeds of mono- and dicotyledonous weed plants and crop plants were sown, in plastic or organic planting pots, in sandy loam and covered with soil. The compounds according to the invention, formulated in the form of wettable powders (WP) or as emulsifiable concentrates (EC), were applied to the surface of the covering soil as aqueous suspension or emulsion, with the addition of 0.5% of an additive, at an application rate of 6001 of water/ha (converted). Following treatment, the pots were placed in a greenhouse and kept under optimum growth conditions for the test plants. The visual grading of the damage to the test plants was carried out after ca. 3 weeks in comparison to untreated controls (herbicidal effect in percent (%): 100% effect = plants have died off, 0% effect = as control plants). Tables C1 to C12 below show the effects of selected compounds of the general formula (I) according to table 1 on various harmful plants and an application rate corresponding to 320 g/ha or below obtained by the experimental procedure mentioned above. Table C1: pre-emergence activity at 320g/ha against KCHSC in %

[9] = system: ECHCG; assay: A. Herbicidal pre-emergence action on harmful plants (Tables A); format: in vivo, Echinochloa crus-galli; settings: visual grading after ca. 3 weeks vs untreated controls, 100% = plants have died off, 0% = as control plants
In short: as §2

[10] = system: LOLRI; assay: as above; format: in vivo, Lolium rigidum; settings: visual grading after ca. 3 weeks vs untreated controls, 100% = plants have died off, 0% = as control plants
In short: as §2

[11] = system: MATIN; assay: C. Herbicidal pre-emergence action, weed and crop plants (Tables C); format: in vivo, Matricaria inodora; settings: application rate 320 g/ha; Table C8
Text: as §3

[12] = system: SETVI; assay: as above; format: in vivo, Setaria viridis; settings: application rate 320 g/ha; Table C10
Text: as §3

[13] = system: MATIN; assay: A. Herbicidal pre-emergence action on harmful plants (Tables A); format: in vivo, Matricaria inodora; settings: visual grading after ca. 3 weeks vs untreated controls, 100% = plants have died off, 0% = as control plants
In short: as §2

[14] = system: DIGSA; assay: as above; format: in vivo, Digitaria sanguinalis
In short: as §2

[15] = system: TRZAS; assay: F. Post-emergence effects on crop plants (Tables F); format: in vivo, Triticum aestivum; settings: crop plant
In short: as §1

[16] = application rate 80 g/ha, Table C5b
[17] = application rate 320 g/ha, Table C5a
[18] = application rate 320 g/ha, Table A7b
[19] = application rate 1280 g/ha, visual grading after ca. 3 weeks vs untreated controls, 100% = plants have died off, 0% = as control plants
[20] = application rate 320 g/ha, Table A12b
[21] = application rate 1280 g/ha, Table A12a
[22] = application rate 80 g/ha, Table A7c

Structure (SMILES)	pre-emergence activity against BRSNW in % ([1]; application rate 80 g/ha)	pre-emergence activity against BRSNW in % ([1]; application rate 320 g/ha)	pre-emergence activity against SETVI ([3]; application rate 320 g/ha)	pre-emergence activity against SETVI ([3]; application rate 1280 g/ha)	pre-emergence activity against DIGSA [4, 16]	pre-emergence activity against DIGSA [4, 17]	pre-emergence activity against POAAN [5, 18]	pre-emergence activity against POAAN [5, 19]	post-emergence activity against ZEAMX in % ([6]; application rate 80 g/ha)	pre-emergence activity against STEME ([7]; application rate 320 g/ha)	pre-emergence activity against STEME ([7]; application rate 1280 g/ha)	pre-emergence activity against LOLRI [8]	pre-emergence activity against ECHCG ([9]; application rate 320 g/ha)	pre-emergence activity against ECHCG ([9]; application rate 1280 g/ha)	pre-emergence activity against LOLRI ([10]; application rate 320 g/ha)	pre-emergence activity against LOLRI ([10]; application rate 1280 g/ha)	pre-emergence activity against MATIN [11]	pre-emergence activity against SETVI [12]	pre-emergence activity against MATIN ([13]; application rate 1280 g/ha)	pre-emergence activity against DIGSA [14, 20]	other results
COCc1nn(C(=O)OC(C)(C)C)cc1C(=O)N1CCCC1Cc1ccccc1F (racemic) [Example I-040]	0%	0%	90%	90%	80%	90%	100%	100%	0%	90%	90%	100%	90%	100%	90%	100%	80%	80%	90%	90%	post-emergence activity against GLXMA in % ([2]; application rate 80 g/ha): 0%; post-emergence activity against ZEAMX in % ([6]; application rate 320 g/ha): 0%; pre-emergence activity against DIGSA [14, 21]: 100%
COCc1nn(C)cc1C(=O)N1CCCC1Cc1ccccc1F (single isomer, unassigned) [Example I-003]	0%	0%	100%	100%			100%	100%		90%	90%	90%	100%	100%	100%	100%	80%	80%	90%	100%	post-emergence activity against GLXMA in % ([2]; application rate 320 g/ha): 10%; pre-emergence activity against SETVI ([3]; application rate 80 g/ha): 100%; pre-emergence activity against POAAN [5, 22]: 100%; pre-emergence activity against STEME ([7]; application rate 80 g/ha): 90%; pre-emergence activity against ECHCG ([9]; application rate 80 g/ha): 100%; pre-emergence activity against LOLRI ([10]; application rate 80 g/ha): 100%; pre-emergence activity against MATIN ([13]; application rate 320 g/ha): 90%; pre-emergence activity against DIGSA ([14]; application rate 80 g/ha, Table A12c): 100%; pre-emergence activity against DIGSA [14, 21]: 100%
COCc1nn(C)cc1C(=O)N1CCCC1Cc1ccccc1F (racemic) [Example I-002]	0%	0%	90%	90%	90%	90%	100%	100%	0%		90%	90%	100%	100%	90%	100%	80%	80%	90%		post-emergence activity against GLXMA in % ([2]; application rate 80 g/ha): 20%; pre-emergence activity against POAAN [5, 22]: 100%; post-emergence activity against ZEAMX in % ([6]; application rate 320 g/ha): 0%; pre-emergence activity against ECHCG ([9]; application rate 80 g/ha): 90%; pre-emergence activity against LOLRI ([10]; application rate 80 g/ha): 90%; pre-emergence activity against MATIN ([13]; application rate 320 g/ha): 90%
COCc1nn(C)cc1C(=O)N1CCCC1C(O)c1ccccc1F (single isomer, unassigned) [Example I-053]	10%		90%	90%	80%	90%	90%	100%	0%	90%	90%	90%	90%	90%	90%	90%	80%	90%	90%	90%	post-emergence activity against GLXMA in % ([2]; application rate 320 g/ha): 20%; post-emergence activity against TRZAS in % ([15]; application rate 80 g/ha): 10%; post-emergence activity against TRZAS in % ([15]; application rate 320 g/ha): 20%; pre-emergence activity against DIGSA [14, 21]: 90%
